# US20220349887A1, “Compositions and Methods for Multiplex Detection of Microorganisms Using Peptide-Tagged Recombinant Infectious Agents” (priority 2021, published 2022)
# Columns and labels:
# Assay in all cases: Antibiotic susceptibility testing in human blood: cefoxitin enrichment, then MP115.NL/SAPJV1.NL phage infection, luminescence
# Assay type in all cases: cell-based
# [1] = tested on: Methicillin-resistant Staphylococcus aureus (MRSA) CDC AR0480; conditions: 110 CFU/Well
# Description: (§1) Methicillin-resistant Staphylococcus aureus (MRSA) strains (ATCC BAA-1720, CDC AR0480) and the methicillin-susceptible Staphylococcus aureus (MSSA) strain (ATCC 12600) were grown to log phase (OD600 ranged from 0.16 to 0.4) in tryptic soy broth (TSB). Cultures were diluted in TSB to obtain the desired burden, which was confirmed by plating on TSB agar for colony forming units (CFU). 50 μL of each dilution was added to test strips. When indicated, some strips contained bound anti-NANOLUC® antibody on medium-binding plates for capture. 85 μL, of either TSB or human blood diluted with TSB and sodium polyanethole sulfonate (SPS) was added. Human blood was collected from a single donor using sodium heparin as an anti-coagulant. Each well then received 15 μL of either TSB or 22 μg/mL cefoxitin (FOX) in TSB. The final concentration of each component in the well (150 μL volume) was 25% human blood, 0.0375% SPS, and 2.2 μg/mL FOX. Test strips were then sealed with cover film and incubated at 37° C. for two hours. After this selective enrichment, 20 μL of phage working stock was added to wells containing the TSB matrix. Phage working stock contained 8×10^7 plaque forming units per mL (pfu/mL) of MP115.NL and 6.9×10^8 pfu/mL of SAPJV1.NL. For wells containing blood matrix, 0.5 mg of recombinant Staphylococcal protein A (pro-356, Prospec, Ness-Ziona, Israel) per well was included within the 20 μL of phage working stock. Assay strips were once again sealed with cover film and incubated at 37° C. for three hours. Following infection, anti-NanoLuc capture and controls strips were washed three times with 300 μL PBS-T (10 mM sodium phosphate, 150 mM NaCl, 0.05% Tween 20, pH 7.4). Washes were conducted using an automatic plate washer (AccuWash, Thermo Fisher Scientific, Waltham, Mass., USA). 100 μL of NanoGlo buffer (Promega, Madison, Wisc., USA) containing 1 μL of NanoGlo substrate (Promega, Madison, Wisc., USA) was added to each well. “No wash+No Capture” strips were not washed and instead received 65 μL of a master mix containing 50 μL NanoGlo Buffer, 15 μL TSB, and 1 μL NanoGlo substrate. Following a 3 minute wait period, the signal output of each sample as relative light units (RLU) was determined using a GloMax Navigator (Promega, Madison, Wisc., USA). Signal over background (SB) was calculated by dividing the RLU from each sample from the RLU observed in the media control for that test matrix (Table 2).
# [2] = tested on: Methicillin-resistant Staphylococcus aureus (MRSA) ATCC BAA-1720; conditions: 41 CFU/Well
# Description: as §1
# [3] = tested on: methicillin-susceptible Staphylococcus aureus (MSSA) ATCC 12600; conditions: 130 CFU/Well
# Description: as §1
# [4] = 5% BSA Blocked Strips, Blood + FOX 2.2 μg/mL
# [5] = 5% BSA Blocked Strips, TSB + FOX 2.2 μg/mL
# [6] = Anti-NanoLuc Capture Strips, Blood + FOX 2.2 μg/mL
# [7] = Anti-NanoLuc Capture Strips, TSB + FOX 2.2 μg/mL
# [8] = No Capture + No Wash, Blood + FOX 2.2 μg/mL
# [9] = No Capture + No Wash, TSB + FOX 2.2 μg/mL
smiles,measurement,setting,value
"CO[C@@]1(NC(=O)Cc2cccs2)C(=O)N2C(C(=O)O)=C(COC(N)=O)CS[C@@H]21 [FOX, cefoxitin]",RLU,[1]; [4],3 RLU
same,S/B,[1]; [4],0
same,RLU,[1]; [5],53 RLU
same,S/B,[1]; [5],7
same,RLU,[1]; [6],6927 RLU
same,S/B,[1]; [6],433
same,RLU,[1]; [7],96650 RLU
same,S/B,[1]; [7],1255
same,RLU,[1]; [8],432 RLU
same,S/B,[1]; [8],8
same,RLU,[1]; [9],127000 RLU
same,S/B,[1]; [9],166
same,RLU,[2]; [4],12 RLU
same,S/B,[2]; [4],2
same,RLU,[2]; [5],20 RLU
same,S/B,[2]; [5],3
same,RLU,[2]; [6],63960 RLU
same,S/B,[2]; [6],3998
same,RLU,[2]; [7],79180 RLU
same,S/B,[2]; [7],1028
same,RLU,[2]; [8],9035 RLU
same,S/B,[2]; [8],177
same,RLU,[2]; [9],342000 RLU
same,S/B,[2]; [9],447
same,RLU,[3]; [4],10 RLU
same,S/B,[3]; [4],1
same,RLU,[3]; [5],6 RLU
same,S/B,[3]; [5],1
same,RLU,[3]; [6],18 RLU
same,S/B,[3]; [6],1
same,RLU,[3]; [7],80 RLU
same,S/B,[3]; [7],1
same,RLU,[3]; [8],103 RLU
same,S/B,[3]; [8],2
same,RLU,[3]; [9],988 RLU
same,S/B,[3]; [9],1
